Measurements published in US20160031907A1, “Substituted Benzene Compounds” (EPIZYME, INC., priority 2013, published 2016).

Test system: WSU-DLCL2 cell line
Experiment: Cell proliferation analysis (Cell Titer Glo, 6 days)
Assay type: cell-based
Details: Homo sapiens, WSUDLCL2, 144 h; WSU-DLCL2 cells, 6 days incubation, cell viability by ATP (Cell Titer Glo)
Description: Cell Proliferation Analysis
WSU-DLCL2 suspension cells were purchased from DSMZ (German Collection of Microorganisms and Cell Cultures, Braunschweig, Germany). RPMI/Glutamax Medium, Penicillin-Streptomycin, Heat Inactivated Fetal Bovine Serum were purchased from Life Technologies, Grand Island, N.Y., USA. V-bottom polypropylene 384-well plates were purchased from Greiner Bio-One, Monroe, N.C., USA. Cell culture 384-well white opaque plates were purchased from Perkin Elmer, Waltham, Mass., USA. Cell-Titer Glo® was purchased from Promega Corporation, Madison, Wis., USA. SpectraMax M5 plate reader was purchased from Molecular Devices LLC, Sunnyvale, Calif., USA.
WSU-DLCL2 suspension cells were maintained in growth medium (RPMI 1640 supplemented with 10% v/v heat inactivated fetal bovine serum and cultured at 37° C. under 5% CO2. Under assay conditions, cells were incubated in Assay Medium (RPMI 1640 supplemented with 20% v/v heat inactivated fetal bovine serum and 100 units/mL penicillin-streptomycin) at 37° C. under 5% CO2.
For the assessment of the effect of compounds on the proliferation of the WSU-DLCL2 cell line, exponentially growing cells were plated in 384-well white opaque plates at a density of 1250 cell/ml in a final volume of 50 μl of assay medium. A compound source plate was prepared by performing triplicate nine-point 3-fold serial dilutions in DMSO, beginning at 10 mM (final top concentration of compound in the assay was 20 μM and the DMSO was 0.2%). A 100 nL aliquot from the compound stock plate was added to its respective well in the cell plate. The 100% inhibition control consisted of cells treated with 200 nM final concentration of staurosporine and the 0% inhibition control consisted of DMSO treated cells. After addition of compounds, assay plates were incubated for 6 days at 37° C., 5% CO2, relative humidity >90% for 6 days. Cell viability was measured by quantization of ATP present in the cell cultures, adding 35 μl of Cell Titer Glo® reagent to the cell plates. Luminescence was read in the SpectraMax M5. The concentration inhibiting cell viability by 50% was determined using a 4-parametric fit of the normalized dose response curves.

Compound | IC50
CCN(c1cc(Cl)cc(C(=O)NCc2ccn(C)n2)c1C)C1CCOCC1 [Cpd 28] | > 50 µM
CCN(c1cc(Cl)cc(C(=O)NCc2c(C)cc(C)n3ccnc23)c1C)[C@H]1CC[C@H](N(C)C)CC1 [Cpd 1] | > 25 µM
CCN(c1cc(Cl)cc(C(=O)NCc2nccs2)c1C)C1CCOCC1 [Cpd 24] | > 50 µM
CCN(c1cc(Cl)cc(C(=O)NCc2cccn3ccnc23)c1C)[C@H]1CC[C@H](N(C)C)CC1 [Cpd 3] | > 25 µM
CCN(c1cc(Cl)cc(C(=O)NCc2cn3ccsc3n2)c1C)C1CCOCC1 [Cpd 26] | > 50 µM
CCN(c1cc(Cl)cc(C(=O)NCc2c(C)ccn3ccnc23)c1C)[C@H]1CC[C@H](N(C)C)CC1 [Cpd 2] | > 25 µM
CCN(c1cc(Cl)cc(C(=O)NCc2c[nH]cn2)c1C)C1CCOCC1 [Cpd 30] | 44.1 µM
CCN(c1cc(Cl)cc(C(=O)NCc2cnn(C)c2C)c1C)C1CCOCC1 [Cpd 27] | > 50 µM
CCN(c1cc(Cl)cc(C(=O)NCc2cc(C)nn2C)c1C)C1CCOCC1 [Cpd 31] | > 50 µM
CCN(c1cc(Cl)cc(C(=O)NCc2cncn2C)c1C)C1CCOCC1 [Cpd 22] | > 50 µM
CCN(c1cc(Cl)cc(C(=O)NCc2cn(C)cn2)c1C)C1CCOCC1 [Cpd 25] | > 50 µM
CCN(c1cc(Cl)cc(C(=O)NCCc2ncc[nH]2)c1C)[C@H]1CC[C@H](N(C)C)CC1 [Cpd 10] | > 50 µM
CCN(c1cc(Cl)cc(C(=O)NCc2nccn2C)c1C)C1CCOCC1 [Cpd 23] | > 50 µM
CCN(c1cc(Cl)cc(C(=O)NCc2cc(C)on2)c1C)C1CCOCC1 [Cpd 29] | > 50 µM
